Reference: US20220356186A1, “PERK INHIBITING PYRROLOPYRIMIDINE COMPOUNDS” (HiberCell, Inc., priority 2019, published 2022)
Where two headings read alike, the source gives them in different places.

Legend:
[1] = target: T1, EIF2AK3 (PERK) catalytic domain (amino acids 536-1116) (Homo sapiens, UniProt Q9NZJ5); assay: PERK in vitro activity assay (isolated), TR-FRET kinase assay; assay type: biochemical
T1 construct: EIF2AK3 (PERK) catalytic domain (amino acids 536-1116)
T1 sequence (Q9NZJ5 536-1116): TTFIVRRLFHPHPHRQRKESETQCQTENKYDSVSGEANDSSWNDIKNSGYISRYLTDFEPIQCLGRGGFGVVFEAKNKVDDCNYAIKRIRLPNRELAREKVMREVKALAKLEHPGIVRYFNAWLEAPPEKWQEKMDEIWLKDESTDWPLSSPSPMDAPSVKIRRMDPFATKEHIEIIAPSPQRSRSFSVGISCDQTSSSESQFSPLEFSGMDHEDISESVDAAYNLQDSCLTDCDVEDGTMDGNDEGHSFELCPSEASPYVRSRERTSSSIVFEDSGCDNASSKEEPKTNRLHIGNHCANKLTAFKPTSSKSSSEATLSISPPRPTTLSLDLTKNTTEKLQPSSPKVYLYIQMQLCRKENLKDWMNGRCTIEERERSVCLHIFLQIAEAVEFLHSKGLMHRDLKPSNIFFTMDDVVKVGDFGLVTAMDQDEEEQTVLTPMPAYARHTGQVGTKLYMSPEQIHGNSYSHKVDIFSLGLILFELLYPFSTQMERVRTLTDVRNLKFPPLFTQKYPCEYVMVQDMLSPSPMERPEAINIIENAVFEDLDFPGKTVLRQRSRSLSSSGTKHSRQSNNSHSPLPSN
Method in brief: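 TR-FRET read-out: after EDTA stop (10 mM final), Tb-labelled phospho-eIF2a antibody (2 nM) for 90 min; IC50 via 4-parameter nonlinear fit. Reaction: PERK aa 536-1116, GFP-eIF2a 100-200 nM, HEPES pH 7.5 with MgCl2/EGTA/Brij-35, 45 min, room temperature, started by enzyme.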

[2] = tested on: GFP-eIF2α in HEK293 cells; assay: PERK cellular assay, TR-FRET in HEK293-EGFP-eIF2a cells after tunicamycin-induced ER stress; assay type: cell-based
Method in brief: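 Compounds were added 30 min before a 2 h tunicamycin ([…]) challenge of lentivirally made GFP-eIF2α HEK293 cells, 5000/well; lysate TR-FRET ratio was the read-out.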

select kinases = assay: KINOMEscan in vitro competition binding assay for select kinases; settings: for KINOMEscan competition binding, inhibition of AURKB: kinase AURKB; for KINOMEscan competition binding, inhibition of AXL: kinase AXL; for KINOMEscan competition binding, inhibition of BLK: kinase BLK; for KINOMEscan competition binding, inhibition of CAMK4: kinase CAMK4; for KINOMEscan competition binding, inhibition of CDK8: kinase CDK8; for KINOMEscan competition binding, inhibition of CDK11: kinase CDK11; for KINOMEscan competition binding, inhibition of CSF1R: kinase CSF1R; for KINOMEscan competition binding, inhibition of EIF2AK1: kinase EIF2AK1; for KINOMEscan competition binding, inhibition of EPHB6: kinase EPHB6; for KINOMEscan competition binding, inhibition of FLT3: kinase FLT3; for KINOMEscan competition binding, inhibition of HIPK4: kinase HIPK4; for KINOMEscan competition binding, inhibition of LOK: kinase LOK; for KINOMEscan competition binding, inhibition of MAP3K2: kinase MAP3K2; for KINOMEscan competition binding, inhibition of MAP3K3: kinase MAP3K3; for KINOMEscan competition binding, inhibition of MAP3K15: kinase MAP3K15; for KINOMEscan competition binding, inhibition of MEK5: kinase MEK5; for KINOMEscan competition binding, inhibition of MKNK2: kinase MKNK2; for KINOMEscan competition binding, inhibition of NEK1: kinase NEK1; for KINOMEscan competition binding, inhibition of NEK5: kinase NEK5; for KINOMEscan competition binding, inhibition of PIK3C2B: kinase PIK3C2B; for KINOMEscan competition binding, inhibition of RIOK2: kinase RIOK2; for KINOMEscan competition binding, inhibition of RIPK1: kinase RIPK1; for KINOMEscan competition binding, inhibition of RIPK2: kinase RIPK2; for KINOMEscan competition binding, inhibition of RIPK5: kinase RIPK5; for KINOMEscan competition binding, inhibition of TESK1: kinase TESK1; for KINOMEscan competition binding, inhibition of TIE2: kinase TIE2; for KINOMEscan competition binding, inhibition of TRKA: kinase TRKA; for KINOMEscan competition binding, inhibition of TRKB: kinase TRKB; for KINOMEscan competition binding, inhibition of TRKC: kinase TRKC; for KINOMEscan competition binding, inhibition of VRK2: kinase VRK2; for KINOMEscan competition binding, inhibition of YANK1: kinase YANK1; for KINOMEscan competition binding, inhibition of YANK2: kinase YANK2; for KINOMEscan competition binding, inhibition of YSK4: kinase YSK4
Aqueous solubility = assay type: physicochemical
[3] = isolated PERK enzyme, 1.5 μM ATP, read-out: Biochemical IC50
[4] = HEK293-EGFP-eIF2a cells, tunicamycin 2 hours, read-out: Cellular eIF2α IC50
[5] = biochemical potency, Table 2, read-out: PERK IC50
[6] = Homo sapiens, HEK293, cellular potency, Table 2, read-out: P-EIF2α IC50

Row | SMILES | IC50 [1, 3] [nM] | IC50 [2, 4] [nM] | KINOMEscan competition binding, inhibition of AURKB (select kinases) | KINOMEscan competition binding, inhibition of AXL (select kinases) | KINOMEscan competition binding, inhibition of BLK (select kinases) | KINOMEscan competition binding, inhibition of CAMK4 (select kinases) | KINOMEscan competition binding, inhibition of CDK8 (select kinases) | KINOMEscan competition binding, inhibition of CDK11 (select kinases) | KINOMEscan competition binding, inhibition of CSF1R (select kinases) | KINOMEscan competition binding, inhibition of EIF2AK1 (select kinases) | KINOMEscan competition binding, inhibition of EPHB6 (select kinases) | KINOMEscan competition binding, inhibition of FLT3 (select kinases) | KINOMEscan competition binding, inhibition of HIPK4 (select kinases) | KINOMEscan competition binding, inhibition of LOK (select kinases) | KINOMEscan competition binding, inhibition of MAP3K2 (select kinases) | KINOMEscan competition binding, inhibition of MAP3K3 (select kinases) | KINOMEscan competition binding, inhibition of MAP3K15 (select kinases) | KINOMEscan competition binding, inhibition of MEK5 (select kinases) | KINOMEscan competition binding, inhibition of MKNK2 (select kinases) | KINOMEscan competition binding, inhibition of NEK1 (select kinases) | other results
1 | Cc1nc(N)c2c(-c3ccc(NC(=O)C(O)c4cccc(F)c4)cc3C)cn(C)c2n1 (single isomer, unassigned) [Example 1, N-(4-(4-amino-2,7-dimethyl-7H-pyrrolo[2,3-d]pyrimidin-5-yl)-3-methylphenyl)-2-(3-fluorophenyl)-2-hydroxyacetamide] | 1 to 25 | 26 to 50 | No Inhibition (“No Inhibition” refers to less than 50% inhibition) | No Inhibition (“No Inhibition” refers to less than 50% inhibition) | No Inhibition (“No Inhibition” refers to less than 50% inhibition) | No Inhibition (“No Inhibition” refers to less than 50% inhibition) | No Inhibition (“No Inhibition” refers to less than 50% inhibition) | No Inhibition (“No Inhibition” refers to less than 50% inhibition) | No Inhibition (“No Inhibition” refers to less than 50% inhibition) | No Inhibition (“No Inhibition” refers to less than 50% inhibition) | No Inhibition (“No Inhibition” refers to less than 50% inhibition) | No Inhibition (“No Inhibition” refers to less than 50% inhibition) | No Inhibition (“No Inhibition” refers to less than 50% inhibition) | No Inhibition (“No Inhibition” refers to less than 50% inhibition) | No Inhibition (“No Inhibition” refers to less than 50% inhibition) | No Inhibition (“No Inhibition” refers to less than 50% inhibition) | No Inhibition (“No Inhibition” refers to less than 50% inhibition) | No Inhibition (“No Inhibition” refers to less than 50% inhibition) | No Inhibition (“No Inhibition” refers to less than 50% inhibition) | No Inhibition (“No Inhibition” refers to less than 50% inhibition) | KINOMEscan competition binding, inhibition of NEK5 (select kinases): No Inhibition (“No Inhibition” refers to less than 50% inhibition); KINOMEscan competition binding, inhibition of PIK3C2B (select kinases): No Inhibition (“No Inhibition” refers to less than 50% inhibition); KINOMEscan competition binding, inhibition of RIOK2 (select kinases): No Inhibition (“No Inhibition” refers to less than 50% inhibition); KINOMEscan competition binding, inhibition of RIPK1 (select kinases): No Inhibition (“No Inhibition” refers to less than 50% inhibition); KINOMEscan competition binding, inhibition of RIPK2 (select kinases): No Inhibition (“No Inhibition” refers to less than 50% inhibition); KINOMEscan competition binding, inhibition of RIPK5 (select kinases): No Inhibition (“No Inhibition” refers to less than 50% inhibition); KINOMEscan competition binding, inhibition of TESK1 (select kinases): No Inhibition (“No Inhibition” refers to less than 50% inhibition); KINOMEscan competition binding, inhibition of TIE2 (select kinases): No Inhibition (“No Inhibition” refers to less than 50% inhibition); KINOMEscan competition binding, inhibition of TRKA (select kinases): No Inhibition (“No Inhibition” refers to less than 50% inhibition); KINOMEscan competition binding, inhibition of TRKB (select kinases): No Inhibition (“No Inhibition” refers to less than 50% inhibition); KINOMEscan competition binding, inhibition of TRKC (select kinases): No Inhibition (“No Inhibition” refers to less than 50% inhibition); KINOMEscan competition binding, inhibition of VRK2 (select kinases): No Inhibition (“No Inhibition” refers to less than 50% inhibition); KINOMEscan competition binding, inhibition of YANK1 (select kinases): No Inhibition (“No Inhibition” refers to less than 50% inhibition); KINOMEscan competition binding, inhibition of YANK2 (select kinases): No Inhibition (“No Inhibition” refers to less than 50% inhibition); KINOMEscan competition binding, inhibition of YSK4 (select kinases): No Inhibition (“No Inhibition” refers to less than 50% inhibition); Kinase selectivity (select kinases; versus Example 9 and GSK2656157, KINOMEscan, Treespot analysis): more selective
2 | Cc1cc(NC(=O)C(O)c2ccccc2)ccc1-c1cn(C)c2ncnc(N)c12 (stereo not shown) [Example 6, N-(4-(4-amino-7-methyl-7H-pyrrolo[2,3-d]pyrimidin-5-yl)-3-methylphenyl)-2-hydroxy-2-phenylacetamide] | 1 to 25 | 1 to 25 | – | – | – | – | – | – | – | – | – | – | – | – | – | – | – | – | – | – | IC50 [1, 5]: 2 nM; IC50 [2, 6]: 23 nM; Aq Sol (Aqueous solubility): 57 µM
3 | Cc1cc(NC(=O)C(O)c2cccc(F)c2)ccc1-c1cn(C)c2ncnc(N)c12 (stereo not shown) [Example 9, N-(4-(4-amino-7-methyl-7H-pyrrolo[2,3-d]pyrimidin-5-yl)-3-methylphenyl)-2-(3-fluorophenyl)-2-hydroxyacetamide] | 1 to 25 | 1 to 25 | Inhibition (“Inhibition” refers to greater than 50% inhibition) | No inhibition | Inhibition (“Inhibition” refers to greater than 50% inhibition) | Inhibition (“Inhibition” refers to greater than 50% inhibition) | Inhibition (“Inhibition” refers to greater than 50% inhibition) | Inhibition (“Inhibition” refers to greater than 50% inhibition) | Inhibition (“Inhibition” refers to greater than 50% inhibition) | Inhibition (“Inhibition” refers to greater than 50% inhibition) | Inhibition (“Inhibition” refers to greater than 50% inhibition) | Inhibition (“Inhibition” refers to greater than 50% inhibition) | Inhibition (“Inhibition” refers to greater than 50% inhibition) | Inhibition (“Inhibition” refers to greater than 50% inhibition) | Inhibition (“Inhibition” refers to greater than 50% inhibition) | Inhibition (“Inhibition” refers to greater than 50% inhibition) | Inhibition (“Inhibition” refers to greater than 50% inhibition) | Inhibition (“Inhibition” refers to greater than 50% inhibition) | Inhibition (“Inhibition” refers to greater than 50% inhibition) | Inhibition (“Inhibition” refers to greater than 50% inhibition) | KINOMEscan competition binding, inhibition of NEK5 (select kinases): Inhibition (“Inhibition” refers to greater than 50% inhibition); KINOMEscan competition binding, inhibition of PIK3C2B (select kinases): Inhibition (“Inhibition” refers to greater than 50% inhibition); KINOMEscan competition binding, inhibition of RIOK2 (select kinases): Inhibition (“Inhibition” refers to greater than 50% inhibition); KINOMEscan competition binding, inhibition of RIPK1 (select kinases): No Inhibition (“No Inhibition” refers to less than 50% inhibition); KINOMEscan competition binding, inhibition of RIPK2 (select kinases): Inhibition (“Inhibition” refers to greater than 50% inhibition); KINOMEscan competition binding, inhibition of RIPK5 (select kinases): Inhibition (“Inhibition” refers to greater than 50% inhibition); KINOMEscan competition binding, inhibition of TESK1 (select kinases): Inhibition (“Inhibition” refers to greater than 50% inhibition); KINOMEscan competition binding, inhibition of TIE2 (select kinases): Inhibition (“Inhibition” refers to greater than 50% inhibition); KINOMEscan competition binding, inhibition of TRKA (select kinases): Inhibition (“Inhibition” refers to greater than 50% inhibition); KINOMEscan competition binding, inhibition of TRKB (select kinases): Inhibition (“Inhibition” refers to greater than 50% inhibition); KINOMEscan competition binding, inhibition of TRKC (select kinases): Inhibition (“Inhibition” refers to greater than 50% inhibition); KINOMEscan competition binding, inhibition of VRK2 (select kinases): Inhibition (“Inhibition” refers to greater than 50% inhibition); KINOMEscan competition binding, inhibition of YANK1 (select kinases): Inhibition (“Inhibition” refers to greater than 50% inhibition); KINOMEscan competition binding, inhibition of YANK2 (select kinases): Inhibition (“Inhibition” refers to greater than 50% inhibition); KINOMEscan competition binding, inhibition of YSK4 (select kinases): Inhibition (“Inhibition” refers to greater than 50% inhibition)
4 | Cc1cc(NC(=O)Cc2ccccc2)ccc1-c1cn(C)c2ncnc(N)c12 [Compound A, reference compound] | – | – | – | – | – | – | – | – | – | – | – | – | – | – | – | – | – | – | – | – | IC50 [1, 5]: 6 nM; IC50 [2, 6]: 41 nM; Aq Sol (Aqueous solubility): 14 µM
